Values after ≈ are worked out from the molar mass of the structure shown.
Legend:
[1] = target: GALK (Homo sapiens (Human), UniProt P51570); test: primary qHTS assay for inhibitors of GALK (KinaseGlo ATP depletion); type: biochemical; conditions: 5 nM GALK, 35 μM ATP, 1 hr incubation
Experimental: Assay details and protocol: The primary assay monitored ATP depletion using Promega's KinaseGlo™ technology, where ATP levels are measured through luminescence generated from firefly luciferase, a bioluminescent ATP-dependent enzymes. […] This was used as the positive control for the assay. […]

[2] = test system: HEK293 cells; test: cytotoxicity, Promega CellTiter Glo on HEK293 cells (PubChem ID 2547); type: cell-based; conditions: analyzed after 48 hours
Experimental: (§1) The selectivity for these analogs against CDP-ME kinase, another member of the GHMP kinase family, was performed using a bioluminescent Kinase Glo™ assay that detects ATP depletion after kinase reaction (PubChem ID 2506). […] All analogs were also tested for cytotoxicity using Promega CellTiter Glo on HEK293 cells that were treated with compounds and analyzed after 48 hours.

[3] = Solubility in PBS; type: physicochemical; conditions: aqueous buffer, pH 7.4, 23° C.
[4] = target: CDP-ME kinase (Escherichia coli (strain K12), UniProt P62615); test: selectivity against CDP-ME kinase (bioluminescent Kinase Glo ATP depletion, PubChem ID 2506); type: biochemical; conditions: up to 57 μM
Chain of CDP-ME kinase (P62615 whole entry, looked up): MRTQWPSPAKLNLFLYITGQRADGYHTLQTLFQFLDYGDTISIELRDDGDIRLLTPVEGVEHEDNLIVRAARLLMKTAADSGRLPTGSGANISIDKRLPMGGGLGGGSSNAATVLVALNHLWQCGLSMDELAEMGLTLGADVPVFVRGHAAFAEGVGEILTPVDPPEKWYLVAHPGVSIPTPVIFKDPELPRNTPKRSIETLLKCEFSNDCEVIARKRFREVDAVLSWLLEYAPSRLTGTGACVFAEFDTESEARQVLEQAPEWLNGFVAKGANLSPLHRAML
Experimental: as §1, with “hours. […] In addition, the ability of these compounds to undergo redox recycling, which may lead to false positive results, was also evaluated using an endpoint colorimetric assay; this assay detects the presence of H2O2 in the kinase reaction buffer (PubChem ID 2502).” for “hours.”

Chain of GALK (P51570 whole entry): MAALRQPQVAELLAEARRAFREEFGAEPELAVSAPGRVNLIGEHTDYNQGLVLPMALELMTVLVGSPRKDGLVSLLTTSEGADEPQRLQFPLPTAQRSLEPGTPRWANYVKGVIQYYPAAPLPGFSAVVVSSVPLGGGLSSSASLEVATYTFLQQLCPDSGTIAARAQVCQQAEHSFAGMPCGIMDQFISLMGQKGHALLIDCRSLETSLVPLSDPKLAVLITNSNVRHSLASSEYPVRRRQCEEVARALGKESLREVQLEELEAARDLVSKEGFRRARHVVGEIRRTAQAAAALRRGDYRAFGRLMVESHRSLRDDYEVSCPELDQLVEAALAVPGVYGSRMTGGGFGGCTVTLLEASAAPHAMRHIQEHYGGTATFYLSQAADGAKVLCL

Row | Structure (SMILES) | IC50 [1] [µM] | cytotoxic effect on HEK293 cells [2] | solubility [3] [µg/mL] | activity against CDP-ME kinase [4]
1 | O=C1CCCC2=C1C1(CCCC1)N=C(Nc1nc3cc(Cl)ccc3o1)N2 [Compound 20] | 6.68 | no cytotoxic effect |  | 
2 | Cc1ccc2oc(NC3=NC4(CCCC4)C4=C(CCCC4=O)N3)nc2c1 [Compound 26] | 5.95 | no cytotoxic effect |  | 
3 | O=C1CCCC2=C1C1(CCCC1)N=C(Nc1nc3cc(Br)ccc3o1)N2 [Compound 27] | 7.49 | no cytotoxic effect |  | 
4 | Cc1ccc2nc(NC3=NC4(CCCC4)C4=C(CCCC4=O)N3)oc2c1 [Compound 28] | 21.1 | no cytotoxic effect |  | 
5 | O=C1CCCC2=C1C1(CCCC1)N=C(Nc1nc3cc4ccccc4cc3o1)N2 [Compound 33] | 37.5 | no cytotoxic effect |  | 
6 | Cn1c(NC2=NC3(CCCC3)C3=C(CCCC3=O)N2)nc2ccccc21 [Compound 35] | 74.9 | no cytotoxic effect |  | 
7 | O=C1CCCC2=C1C1(CCCC1)N=C(Nc1nc3ccccc3o1)N2 [NCGC00187642] |  |  | 2.3 (≈ 6.84 µM) | no activity
